# Source: US20250313548A1 (Actio Biosciences, Inc., priority 2023, published 2025)
# Biological target: human, KCNT1 (Homo sapiens (Human), UniProt Q5JUK3)
# Test: FLIPR Tl/K Flux Assay
# Type: cell-based
# Conditions: HEK293 cells stably expressing human KCNT1; Tl+ flux stimulated with EC80 of agonist Loxapine
# Method in brief: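 Inhibition values come from a Hill-equation fit of % inhibition versus log concentration, using normalized fluorescence (Fmax/Fmin) over a 160 s read. The read followed stimulation with Tl+ plus EC80 agonist loxapine after 30 min compound pre-incubation at 25 °C. Cells were KCNT1-expressing HEK293, dye-loaded 1 h in pH 7.4 HEPES/HBSS with 5 mM probenecid.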
# Sequence of human, KCNT1 (Q5JUK3 whole entry): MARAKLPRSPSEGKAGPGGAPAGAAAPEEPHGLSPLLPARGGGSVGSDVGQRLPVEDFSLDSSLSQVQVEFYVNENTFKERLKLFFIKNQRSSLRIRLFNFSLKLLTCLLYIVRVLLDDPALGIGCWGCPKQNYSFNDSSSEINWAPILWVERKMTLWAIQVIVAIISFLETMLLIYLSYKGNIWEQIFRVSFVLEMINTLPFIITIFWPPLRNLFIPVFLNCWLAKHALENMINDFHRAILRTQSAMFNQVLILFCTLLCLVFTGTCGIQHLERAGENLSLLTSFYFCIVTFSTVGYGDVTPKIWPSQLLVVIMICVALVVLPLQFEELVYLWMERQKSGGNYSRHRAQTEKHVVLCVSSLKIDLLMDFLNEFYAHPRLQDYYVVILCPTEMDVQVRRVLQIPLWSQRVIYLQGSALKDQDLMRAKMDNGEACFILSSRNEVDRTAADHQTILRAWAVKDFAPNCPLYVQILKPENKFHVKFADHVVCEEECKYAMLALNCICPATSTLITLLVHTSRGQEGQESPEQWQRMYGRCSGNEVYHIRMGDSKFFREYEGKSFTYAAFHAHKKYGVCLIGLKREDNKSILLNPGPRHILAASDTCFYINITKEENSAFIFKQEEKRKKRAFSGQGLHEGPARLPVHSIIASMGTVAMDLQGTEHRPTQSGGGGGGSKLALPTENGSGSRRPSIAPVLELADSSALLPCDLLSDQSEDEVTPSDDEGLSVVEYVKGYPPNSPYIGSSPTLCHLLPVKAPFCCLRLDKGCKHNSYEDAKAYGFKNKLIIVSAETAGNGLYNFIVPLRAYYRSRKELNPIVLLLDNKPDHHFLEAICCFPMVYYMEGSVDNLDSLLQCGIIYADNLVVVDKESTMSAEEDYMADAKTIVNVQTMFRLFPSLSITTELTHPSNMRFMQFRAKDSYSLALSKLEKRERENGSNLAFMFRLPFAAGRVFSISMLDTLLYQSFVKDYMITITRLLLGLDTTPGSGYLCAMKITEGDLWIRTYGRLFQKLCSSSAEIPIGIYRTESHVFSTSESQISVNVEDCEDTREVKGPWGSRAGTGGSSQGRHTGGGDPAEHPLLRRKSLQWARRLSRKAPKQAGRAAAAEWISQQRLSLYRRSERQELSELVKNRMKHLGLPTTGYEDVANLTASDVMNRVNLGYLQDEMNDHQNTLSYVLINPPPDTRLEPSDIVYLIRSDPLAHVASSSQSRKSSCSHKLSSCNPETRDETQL
row,IC50 [nM],SMILES
1,< 250,"O=C(N[C@H]1CCn2nc(-c3ccnc(C(F)(F)F)c3)cc21)c1cc2cccnn2c1 [Compound I-291a, (S)-N-(2-(2-(Trifluoromethyl)pyridin-4-yl)-5,6-dihydro-4H-pyrrolo[1,2-b]pyrazol-4-yl)pyrrolo[1,2-b]pyridazine-6-carboxamide]"
2,< 250,"COc1cc(-c2cc3n(n2)CC[C@@H]3NC(=O)c2cc3cccnn3c2)ccn1 [Compound I-292a, (S)-N-(2-(2-Methoxypyridin-4-yl)-5,6-dihydro-4H-pyrrolo[1,2-b]pyrazol-4-yl)pyrrolo[1,2-b]pyridazine-6-carboxamide]"
3,250 to 500,"COc1cc(-c2nc3c(o2)CCC[C@@H]3NC(=O)c2cc3cccnn3c2)ccn1 [Compound I-293a, (S)-N-(2-(2-Methoxypyridin-4-yl)-4,5,6,7-tetrahydrobenzo[d]oxazol-4-yl)pyrrolo[1,2-b]pyridazine-6-carboxamide]"
4,< 250,"COc1cc(-c2nc3c(o2)CCC[C@@H]3NC(=O)c2cccc(C#N)c2)ccn1 [Compound I-294a, (S)-3-Cyano-N-(2-(2-methoxypyridin-4-yl)-4,5,6,7-tetrahydrobenzo[d]oxazol-4-yl)benzamide]"
5,< 250,"N#Cc1cc(C(=O)N[C@H]2CCCn3nc(-c4ccnc(C(F)(F)F)c4)cc32)cc(C(F)(F)F)c1 [Compound I-295a, (S)-3-Cyano-5-(trifluoromethyl)-N-(2-(2-(trifluoromethyl)pyridin-4-yl)-4,5,6,7-tetrahydropyrazolo[1,5-a]pyridin-4-yl)benzamide]"
6,< 250,"O=C(N[C@H]1CCCc2oc(-c3ccnc(C(F)(F)F)c3)nc21)c1cc2cccnn2c1 [Compound I-296a, (S)-N-(2-(2-(Trifluoromethyl)pyridin-4-yl)-4,5,6,7-tetrahydrobenzo[d]oxazol-4-yl)pyrrolo[1,2-b]pyridazine-6-carboxamide]"
7,< 250,"N#Cc1cccc(C(=O)N[C@H]2CCCc3oc(-c4ccnc(C(F)(F)F)c4)nc32)c1 [Compound I-297a, (S)-3-Cyano-N-(2-(2-(trifluoromethyl)pyridin-4-yl)-4,5,6,7-tetrahydrobenzo[d]oxazol-4-yl)benzamide]"
8,< 250,"N#Cc1cc(F)cc(C(=O)N[C@H]2CCCc3oc(-c4ccnc(C(F)(F)F)c4)nc32)c1 [Compound I-298a, (S)-3-Cyano-5-fluoro-N-(2-(2-(trifluoromethyl)pyridin-4-yl)-4,5,6,7-tetrahydrobenzo[d]oxazol-4-yl)benzamide]"
9,< 250,COc1cc(C(=O)N[C@H]2CCCc3oc(-c4ccnc(C(F)(F)F)c4)nc32)ccn1 [Compound I-299a]
10,< 250,"N#Cc1cc(F)cc(C(=O)N[C@H]2CCn3nc(-c4ccnc(C5CC5)c4)cc32)c1 [Compound I-300a, (S)-3-Cyano-N-(2-(2-cyclopropylpyridin-4-yl)-5,6-dihydro-4H-pyrrolo[1,2-b]pyrazol-4-yl)-5-fluorobenzamide]"
11,< 250,"COc1cc(-c2cc3n(n2)CC[C@@H]3NC(=O)c2cc(F)cc(C#N)c2)ccn1 [Compound I-301a, (S)-3-Cyano-5-fluoro-N-(2-(2-methoxypyridin-4-yl)-5,6-dihydro-4H-pyrrolo[1,2-b]pyrazol-4-yl)benzamide]"
12,< 250,"N#Cc1cccc(C(=O)N[C@H]2CCCn3nc(-c4cc(C(F)(F)F)ncc4F)cc32)c1 [Compound I-302a, (S)-3-Cyano-N-(2-(5-fluoro-2-(trifluoromethyl)pyridin-4-yl)-4,5,6,7-tetrahydropyrazolo[1,5-a]pyridin-4-yl)benzamide]"
13,< 250,"Cc1cnc(C(F)(F)F)cc1-c1cc2n(n1)CCC[C@@H]2NC(=O)c1nc(C(F)(F)F)nn1C [Compound I-303a, (S)-1-Methyl-N-(2-(5-methyl-2-(trifluoromethyl)pyridin-4-yl)-4,5,6,7-tetrahydropyrazolo[1,5-a]pyridin-4-yl)-3-(trifluoromethyl)-1H-1,2,4-triazole-5-carboxamide]"
14,< 250,"Cc1cnc(C(F)(F)F)cc1-n1cc2c(n1)CC[C@@H]2NC(=O)c1cc(C(F)(F)F)nn1C [Compound I-304a, (S)-1-Methyl-N-(2-(5-methyl-2-(trifluoromethyl)pyridin-4-yl)-2,4,5,6-tetrahydrocyclopenta[c]pyrazol-4-yl)-3-(trifluoromethyl)-1H-pyrazole-5-carboxamide]"
15,< 250,"Cc1cc(C#N)cc(C(=O)NC2CCn3nc(-c4ccnc(C5CC5)c4)cc32)c1 (stereo not shown) [Compound I-306a, 3-Cyano-N-(2-(2-cyclopropylpyridin-4-yl)-5,6-dihydro-4H-pyrrolo[1,2-b]pyrazol-4-yl)-5-methylbenzamide]"
16,500 to 1000,"Cn1nc(C(F)(F)F)cc1C(=O)N[C@H]1CCCn2nc(-c3cnnc(C(F)(F)F)c3)cc21 [Compound I-307a, (S)-1-Methyl-3-(trifluoromethyl)-N-(2-(6-(trifluoromethyl)pyridazin-4-yl)-4,5,6,7-tetrahydropyrazolo[1,5-a]pyridin-4-yl)-1H-pyrazole-5-carboxamide]"

row,IC50 [nM],SMILES
1,< 250,"Cn1nc(C(F)(F)F)nc1C(=O)N[C@H]1CCc2nn(-c3ccnc(C(F)(F)F)c3)cc21 [Compound I-308a, (S)-1-Methyl-3-(trifluoromethyl)-N-(2-(2-(trifluoromethyl)pyridin-4-yl)-2,4,5,6-tetrahydrocyclopenta[c]pyrazol-4-yl)-1H-1,2,4-triazole-5-carboxamide]"
2,< 250,"N#Cc1cccc(C(=O)N[C@H]2CCn3nc(-c4ccnc(C5CC5)c4)cc32)c1 [Compound I-310a, (S)-3-Cyano-N-(2-(2-cyclopropylpyridin-4-yl)-5,6-dihydro-4H-pyrrolo[1,2-b]pyrazol-4-yl)benzamide]"
3,< 250,"Cc1cnc(C(F)(F)F)cc1-c1cc2n(n1)CCCC[C@@H]2NC(=O)c1cc(C(F)(F)F)nn1C [Compound I-311a, (S)-1-Methyl-N-(2-(5-methyl-2-(trifluoromethyl)pyridin-4-yl)-5,6,7,8-tetrahydro-4H-pyrazolo[1,5-a]azepin-4-yl)-3-(trifluoromethyl)-1H-pyrazole-5-carboxamide]"
4,> 1000,Cc1cnc(C(F)(F)F)cc1-c1cc2n(n1)CCCC[C@H]2NC(=O)c1cc(C(F)(F)F)nn1C [Compound I-311b]
5,< 250,"COc1cc(-c2cc3n(n2)CCCC[C@@H]3NC(=O)c2cc(F)cc(C#N)c2)ccn1 [Compound I-312a, (S)-3-Cyano-5-fluoro-N-(2-(2-methoxypyridin-4-yl)-5,6,7,8-tetrahydro-4H-pyrazolo[1,5-a]azepin-4-yl)benzamide]"
6,< 250,"COc1cc(-c2cc3n(n2)CCC[C@@H]3NC(=O)c2cc(F)cc(C#N)c2)ccn1 [Compound I-313a, (S)-3-Cyano-5-fluoro-N-(2-(2-methoxypyridin-4-yl)-4,5,6,7-tetrahydropyrazolo[1,5-a]pyridin-4-yl)benzamide]"
7,< 250,"Cn1nc(C(F)(F)F)nc1C(=O)N[C@H]1CCn2nc(-c3ccnc(C(F)(F)F)c3)cc21 [Compound I-314a, (S)-1-Methyl-3-(trifluoromethyl)-N-(2-(2-(trifluoromethyl)pyridin-4-yl)-5,6-dihydro-4H-pyrrolo[1,2-b]pyrazol-4-yl)-1H-1,2,4-triazole-5-carboxamide]"
8,< 250,"Cc1cc(-c2cc3n(n2)CCC[C@@H]3NC(=O)c2cc(C(F)(F)F)nn2C)cc(C2CC2)n1 [Compound I-315a, (S)-N-(2-(2-Cyclopropyl-6-methylpyridin-4-yl)-4,5,6,7-tetrahydropyrazolo[1,5-a]pyridin-4-yl)-1-methyl-3-(trifluoromethyl)-1H-pyrazole-5-carboxamide]"
9,500 to 1000,"Cn1nc(C(F)(F)F)cc1C(=O)N[C@H]1CCCn2nc(-c3nnc(C(F)(F)F)o3)cc21 [Compound I-316a, (S)-1-Methyl-3-(trifluoromethyl)-N-(2-(5-(trifluoromethyl)-1,3,4-oxadiazol-2-yl)-4,5,6,7-tetrahydropyrazolo[1,5-a]pyridin-4-yl)-1H-pyrazole-5-carboxamide]"
10,500 to 1000,"Cn1nc(C(F)(F)F)cc1C(=O)N[C@H]1CCCn2nc(-c3cnc(C(F)(F)F)o3)cc21 [Compound I-317a, (S)-1-Methyl-3-(trifluoromethyl)-N-(2-(2-(trifluoromethyl)oxazol-5-yl)-4,5,6,7-tetrahydropyrazolo[1,5-a]pyridin-4-yl)-1H-pyrazole-5-carboxamide]"
11,< 250,"CCOc1cc(C(=O)N[C@H]2CCn3nc(-c4cc(C(F)(F)F)ncc4F)cc32)ccn1 [Compound I-318a, (S)-2-Ethoxy-N-(2-(5-fluoro-2-(trifluoromethyl)pyridin-4-yl)-5,6-dihydro-4H-pyrrolo[1,2-b]pyrazol-4-yl)isonicotinamide]"
12,< 250,"N#Cc1cc(F)cc(C(=O)N[C@H]2CCCCn3nc(-c4ccnc(C(F)(F)F)c4)cc32)c1 [Compound I-319a, (S)-3-Cyano-5-fluoro-N-(2-(2-(trifluoromethyl)pyridin-4-yl)-5,6,7,8-tetrahydro-4H-pyrazolo[1,5-a]azepin-4-yl)benzamide]"
13,< 250,"N#Cc1cc(F)cc(C(=O)N[C@H]2CCCn3nc(-c4ccnc(C(F)(F)F)c4)cc32)c1 [Compound I-320a, (S)-3-Cyano-5-fluoro-N-(2-(2-(trifluoromethyl)pyridin-4-yl)-4,5,6,7-tetrahydropyrazolo[1,5-a]pyridin-4-yl)benzamide]"
14,< 250,"N#Cc1cncc(C(=O)N[C@H]2CCCn3nc(-c4ccnc(C(F)(F)F)c4)cc32)n1 [Compound I-321a, (S)-6-Cyano-N-(2-(2-(trifluoromethyl)pyridin-4-yl)-4,5,6,7-tetrahydropyrazolo[1,5-a]pyridin-4-yl)pyrazine-2-carboxamide]"
15,> 1000,"Cn1nc(C(F)(F)F)cc1C(=O)N[C@H]1CCCn2nc(-c3ccnc(CO)c3)cc21 [Compound I-322a, (S)—N-(2-(2-(Hydroxymethyl)pyridin-4-yl)-4,5,6,7-tetrahydropyrazolo[1,5-a]pyridin-4-yl)-1-methyl-3-(trifluoromethyl)-1H-pyrazole-5-carboxamide]"
